The values below come from patent publication US20020052491A1, “Method for the production of 2-chloro-2' -deoxyadenosine (cladribine) and its 3,5-di-O-p-toluoyl derivative” (priority 1999, published 2002).

As a reminder, the pKa is the pH at which an ionisable group is half protonated.

The conditions of data set [1]: H-9 proton; cited from earlier work.
Data set [2] deals with Epstein Barr B lymphoblastoid cell lines. The data set can be described thus: in vitro sensitivity, Epstein Barr B lymphoblastoid cell lines. In kind it is cell-based. As to conditions: 50% growth inhibition, no source mark printed, read-out: IC50 (nmol/L)**. From the text:
(§1) The in vitro effect of cladribine (2-CdA) has been studied on a number of cell lines, showing different degrees of sensitivity, represented by the IC50 value (concentration required to inhibit 50% of growth) on a case-by-case basis.

Data set [3] concerns neuroblastoma cell line. As to conditions: cited from earlier work.
Data set [4] concerns T lymphocyte colony forming cells. The following applies: cited from earlier work.
Data set [5] relates to human melanoma cell lines. The following applies: some human melanoma cell lines; cited from earlier work.
Data set [6] relates to T cells. The following applies: 50% growth inhibition, read-out: IC50 (nmol/L)**; cited from earlier work.
Data set [7] has as its system Acute myelogenous leukemia. As to conditions: 50% growth inhibition, read-out: IC50 (nmol/L)**; cited from earlier work.
The subject of data set [8] is granulocyte-macrophage colony forming units and erythrocyte burst forming units. The following applies: more immature progenitors (granulocyte-macrophage colony forming units and erythrocyte burst forming units); approximately; cited from earlier work.
Data set [9] has as its system Hairy cell leukemia. The following applies: 50% growth inhibition, read-out: IC50 (nmol/L)**; cited from earlier work.
Data set [10] deals with lymphoblastoid leukemia cells. The following applies: 5 nmol/L; cited from earlier work.
Data set [11] relates to dividing and non-dividing cells. As to conditions: cited from earlier work.
Data set [12] has as its system Multiple myeloma cells. As to conditions: cited from earlier work.
Data set [13] deals with myeloid progenitor cell. The following applies: dose-dependent basis; cited from earlier work.
In data set [14] the test system is B cells. As to conditions: 50% growth inhibition, read-out: IC50 (nmol/L)**; cited from earlier work.
For data set [15], the system named is cell lines of bone tumors. As to conditions: in vitro; cited from earlier work.
For data set [16], the system named is Peripheral lymphocytes. The following applies: cited from earlier work.
The subject of data set [17] is myeloid cells. The following applies: cited from earlier work.
Data set [18] deals with Mature erythroid colony forming units (mBFU-E). As to conditions: cited from earlier work.
In data set [19] the test system is Non-Hodgkin's lymphoma. The following applies: 50% growth inhibition, read-out: IC50 (nmol/L)**; cited from earlier work.
Data set [20] relates to Chronic lymphocytic leukemia. The following applies: 50% growth inhibition, read-out: IC50 (nmol/L)**; cited from earlier work.
Data set [21] relates to Acute lymphoblastic leukemia. The following applies: drug concentration required to inhibit 50% of growth, read-out: IC50 (nmol/L)**; cited from earlier work.
In data set [22] the test system is Erythroid progenitor cells. As to conditions: decreases as maturation state rises; cited from earlier work.
For data set [23], the system named is DAUDI cell line. Nature of the data set: in vitro sensitivity, DAUDI cell line. Format: cell-based. The following applies: Homo sapiens, 50% growth inhibition, Data Bio Sidus, read-out: IC50 (nmol/L)**.
Description: as §1

Data set [24] concerns Normal bone marrow. As to conditions: cited from earlier work.
The test system of data set [25] is erythroid colony forming cells (CFU-E). As to conditions: cited from earlier work.

With `Nc1ncnc2nc[nH]c12` [adenine], the pKa in data set [1] is 9.80.

`Nc1nc(Cl)nc2c1ncn2[C@H]1C[C@H](O)[C@@H](CO)O1` [Cladribine, 2-chloro-2′-deoxyadenosine]: the IC50 is 200 nmol/L in [2]; 60 nM in data set [3]; 3 to 338 nmol/L in data set [6]; 20 nmol/L in data set [7]; 16 to 20 nM in [8]; 31 nmol/L in [9]. For the same compound, the IC50 is 1750 nmol/L in [12] (Multiple myeloma, 50% growth inhibition, read-out: IC50 (nmol/L)**); 6 to 67 nmol/L in [14]; 5 to 70 nM in [17]; 38 nM in data set [18]; 87 nmol/L in [19]; 39 nmol/L in [20]. Further, the IC50 in data set [21] was 34 nmol/L; in data set [23], 210 nmol/L; in data set [24] (Normal bone marrow, 50% growth inhibition, read-out: IC50 (nmol/L)**), 15 nmol/L; in data set [25] it was 56 nM. The “concentration needed for a complete inhibition of lymphoid colony formation” value in data set [4] (complete inhibition) is 1280 nmol/L. Further, the “T lymphocyte colony forming cells” value in data set [4] (dose-dependent basis) was “inhibits”. Besides, the IC37 in data set [5] was 12 to 22 nmol/L. For the same compound, the thymidine uptake result in data set [10] is reported as “inhibits”. In addition, the “activity in dividing and non-dividing cells” value in data set [11] is given as “active”. Also, the “activity on multiple myeloma cells” value in data set [12] (in vitro) is “low activity”. Moreover, in data set [13], the “myeloid progenitor cell growth” value is “inhibits”. For the same compound, in [15], the “activity on cell lines of bone tumors” value was “low activity”. Further, the “viability of peripheral lymphocytes” value in data set [16] (100 nmol/l during 24 hours, followed by washing) is listed as “retain viability”. Besides, the cells die in [16] (seven-day incubation with 8 nmol/L) is 60%. The “sensitivity of erythroid progenitor cells” value in [22] is listed as “dose-dependent sensitivity”. For the same compound, the “granulocyte and macrophage colony formation” value in data set [24] (5 nmol/L, normal bone marrow) is reported as “no effect”.
